Data on eight molecules can be found in patent US12195482B1 (Arcus Biosciences, Inc., priority 2022, dated 2025).

Molecules are shown by their SMILES.

Assay [1] has as its target T1, recombinant human MER (Homo sapiens, UniProt Q12866).
T1 construct: purchased Invitrogen
T1 sequence (Q12866 21-999): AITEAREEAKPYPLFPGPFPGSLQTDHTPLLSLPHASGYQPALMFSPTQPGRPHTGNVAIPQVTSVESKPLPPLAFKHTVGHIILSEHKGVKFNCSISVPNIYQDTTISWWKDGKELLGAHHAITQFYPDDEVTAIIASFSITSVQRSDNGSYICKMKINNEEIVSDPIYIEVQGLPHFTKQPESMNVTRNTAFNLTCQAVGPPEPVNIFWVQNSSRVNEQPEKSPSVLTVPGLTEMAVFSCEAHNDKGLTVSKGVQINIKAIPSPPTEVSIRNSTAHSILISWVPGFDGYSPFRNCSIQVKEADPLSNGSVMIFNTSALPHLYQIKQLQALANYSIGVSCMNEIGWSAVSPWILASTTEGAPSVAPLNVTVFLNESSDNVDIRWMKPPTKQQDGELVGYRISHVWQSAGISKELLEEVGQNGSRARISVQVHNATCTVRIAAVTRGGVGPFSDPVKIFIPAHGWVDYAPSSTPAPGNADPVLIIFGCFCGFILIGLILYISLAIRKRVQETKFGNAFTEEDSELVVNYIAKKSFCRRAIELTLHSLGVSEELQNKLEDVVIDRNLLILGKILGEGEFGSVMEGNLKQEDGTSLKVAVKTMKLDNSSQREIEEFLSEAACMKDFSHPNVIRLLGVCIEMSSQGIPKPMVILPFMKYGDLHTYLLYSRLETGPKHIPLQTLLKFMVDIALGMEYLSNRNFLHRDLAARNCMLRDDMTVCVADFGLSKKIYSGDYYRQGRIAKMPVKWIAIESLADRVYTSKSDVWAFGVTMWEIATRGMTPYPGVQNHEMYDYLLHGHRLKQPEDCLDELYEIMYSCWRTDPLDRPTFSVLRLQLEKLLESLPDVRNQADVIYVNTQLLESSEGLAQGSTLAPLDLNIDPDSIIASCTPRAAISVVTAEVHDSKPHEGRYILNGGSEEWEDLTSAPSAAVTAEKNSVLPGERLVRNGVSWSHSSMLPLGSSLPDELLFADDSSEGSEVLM
Kind of assay: Biochemical potency, HTRF KinEASE-TK kinase assay. The note with it: 1 nM MER, 700 μM ATP. In a few lines:
(§1)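 HTRF 665/620 readout after a 2 h RT kinase reaction (final 700 μM ATP, 800 nM biotinylated TK substrate, 1% DMSO, HEPES pH 7.4 buffer) gave percent activity. Final enzyme was 5 nM for AXL, 1 nM for TYRO3 or MER, each preincubated 1 h with compound.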
On the technique in general: Time-resolved FRET reads energy transfer from a long-lived donor to a nearby acceptor.

Assay [2] concerns the target T2, recombinant human TYRO3 (Homo sapiens, UniProt Q06418).
T2 construct: purchased Invitrogen
T2 sequence (Q06418 41-890): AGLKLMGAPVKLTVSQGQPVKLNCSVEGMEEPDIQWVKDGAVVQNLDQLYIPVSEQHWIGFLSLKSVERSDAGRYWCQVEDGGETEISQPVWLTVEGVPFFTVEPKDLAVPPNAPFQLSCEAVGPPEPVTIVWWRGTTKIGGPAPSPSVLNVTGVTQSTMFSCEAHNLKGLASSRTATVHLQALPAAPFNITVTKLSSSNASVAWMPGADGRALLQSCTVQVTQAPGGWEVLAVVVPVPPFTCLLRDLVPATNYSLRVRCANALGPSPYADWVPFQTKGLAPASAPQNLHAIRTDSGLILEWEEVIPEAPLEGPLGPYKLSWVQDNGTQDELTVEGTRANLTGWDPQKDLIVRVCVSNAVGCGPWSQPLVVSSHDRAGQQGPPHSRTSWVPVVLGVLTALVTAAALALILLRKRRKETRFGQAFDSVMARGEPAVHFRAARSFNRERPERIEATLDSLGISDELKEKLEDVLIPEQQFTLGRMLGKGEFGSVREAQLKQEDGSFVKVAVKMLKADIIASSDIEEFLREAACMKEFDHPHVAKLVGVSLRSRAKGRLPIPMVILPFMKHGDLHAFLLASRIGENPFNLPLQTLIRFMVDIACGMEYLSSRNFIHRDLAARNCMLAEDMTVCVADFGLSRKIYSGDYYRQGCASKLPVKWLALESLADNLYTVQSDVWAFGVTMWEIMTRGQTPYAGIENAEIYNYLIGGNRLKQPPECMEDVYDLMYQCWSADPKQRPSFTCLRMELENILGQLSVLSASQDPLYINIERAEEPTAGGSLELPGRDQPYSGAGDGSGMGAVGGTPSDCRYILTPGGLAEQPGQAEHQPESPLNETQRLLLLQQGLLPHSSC
Kind of assay: Biochemical potency, HTRF KinEASE-TK kinase assay. The note with it: 1 nM TYRO3, 700 μM ATP. In short, it runs like this: as §1

In the case of `FC(F)(F)Oc1cccnc1-c1ccc(-c2c[nH]c3ncc(-c4ccc5c(c4)CC[C@@H](N4C6COCC4C6)CC5)cc23)cc1` [Example 103, 6-[(7S)-2-(3-{4-[3-(Trifluoromethoxy)pyridin-2-yl]phenyl}-1H-pyrrolo[2,3-b]pyridin-5-yl)-6,7,8,9-tetrahydro-5H-benzo[7]annulen-7-yl]-3-oxa-6-azabicyclo[3.1.1]heptane], the IC50 in assay [1] and in assay [2] was greater than 1000 nM each time.
On to `CN(C)C(=O)c1ccccc1-c1ccc(-c2n[nH]c3ncc(-c4ccc5c(c4)CC[C@@H](N4C6COCC4C6)CC5)cc23)cc1` [Example 12, N,N-Dimethyl-4′-{5-[(7S)-7-{3-oxa-6-azabicyclo[3.1.1]heptan-6-yl}-6,7,8,9-tetrahydro-5H-benzo[7]annulen-2-yl]-2H-pyrazolo[3,4-b]pyridin-3-yl}-[1,1′-biphenyl]-2-carboxamide], for which the IC50 in assay [1] and in assay [2] was 100 to 1000 nM in each case.
For the molecule `c1cnc(-c2ccc(-c3c[nH]c4ncc(-c5ccc6c(c5)CC[C@@H](N5C7COCC5C7)CC6)cc34)cc2)c(C2CC2)c1` [Example 178, 6-[(7S)-2-{3-[4-(3-Cyclopropylpyridin-2-yl)phenyl]-1H-pyrrolo[2,3-b]pyridin-5-yl}-6,7,8,9-tetrahydro-5H-benzo[7]annulen-7-yl]-3-oxa-6-azabicyclo[3.1.1]heptane], the IC50 in assay [1] and in assay [2] was 100 to 1000 nM throughout.
For `c1ccc(-c2ccc(-c3n[nH]c4ncc(-c5ccc6c(c5)CC[C@@H](N5C7COCC5C7)CC6)cc34)cc2)nc1` [Example 154, 6-[(7S)-2-{3-[4-(Pyridin-2-yl)phenyl]-2H-pyrazolo[3,4-b]pyridin-5-yl}-6,7,8,9-tetrahydro-5H-benzo[7]annulen-7-yl]-3-oxa-6-azabicyclo[3.1.1]heptane], the IC50 in assay [1] and in assay [2] was 100 to 1000 nM throughout.
`c1cnc(-c2ccc(-c3n[nH]c4ncc(-c5ccc6c(c5)CC[C@@H](N5C7COCC5C7)CC6)cc34)cc2)c(C2CC2)c1` [Example 179, 6-[(7S)-2-{3-[4-(3-Cyclopropylpyridin-2-yl)phenyl]-1H-pyrazolo[3,4-b]pyridin-5-yl}-6,7,8,9-tetrahydro-5H-benzo[7]annulen-7-yl]-3-oxa-6-azabicyclo[3.1.1]heptane]: the concentration for half-maximal inhibition (IC50) in assay [1] and in assay [2] was 100 to 1000 nM in each case.
On to `Cc1cc(-c2n[nH]c3ncc(-c4ccc5c(c4)CC[C@@H](N4C6COCC4C6)CC5)cc23)ccc1-c1ccccn1` [Example 159, 6-[(7S)-2-{3-[3-Methyl-4-(pyridin-2-yl)phenyl]-2H-pyrazolo[3,4-b]pyridin-5-yl}-6,7,8,9-tetrahydro-5H-benzo[7]annulen-7-yl]-3-oxa-6-azabicyclo[3.1.1]heptane], for which the IC50 in assay [1] and in assay [2] was 100 to 1000 nM in each case.
With `CN(C)C(=O)c1cccnc1-c1ccc(-c2c[nH]c3ncc(-c4ccc5c(c4)CC[C@@H](N4C6COCC4C6)CC5)cc23)cc1` [Example 165, N,N-Dimethyl-2-(4-{5-[(7S)-7-{3-oxa-6-azabicyclo[3.1.1]heptan-6-yl}-6,7,8,9-tetrahydro-5H-benzo[7]annulen-2-yl]-1H-pyrrolo[2,3-b]pyridin-3-yl}phenyl)pyridine-3-carboxamide], the IC50 in assay [1] was 100 to 1000 nM; in assay [2] it was less than 100 nM.
For the molecule `CC(C)(O)c1cccnc1-c1ccc(-c2n[nH]c3ncc(-c4ccc5c(c4)CC[C@@H](N4C6COCC4C6)CC5)cc23)cc1` [Example 10, 2-[2-(4-{5-[(7S)-7-{3-Oxa-6-azabicyclo[3.1.1]heptan-6-yl}-6,7,8,9-tetrahydro-5H-benzo[7]annulen-2-yl]-1H-pyrazolo[3,4-b]pyridin-3-yl}phenyl)pyridin-3-yl]propan-2-ol], the figures for the IC50 in assay [1] and in assay [2] were 100 to 1000 nM and less than 100 nM, respectively.

For orientation: IC50 means the concentration at which inhibition is half-maximal.
